In patent US9956232B2, “Dialkyl-phosphinoyl-alkane (Dapa) compounds and compositions for treatment of lower gastrointestinal tract disorders” (priority 2016, dated 2018):
Values joined by “and” are separate entries in the source; they are usually repeats but may differ in a detail not shown here. Equal entries are not always repeated. Where two headings read alike, the source gives them in different places.

How the values were obtained:
[1] = test system: human circular smooth muscle; assay: Spontaneous contractions of human colon circular smooth muscle strips in organ bath; conditions: for IC50: read-out: median inhibitory concentration (IC50)
Procedure: In this present study, Dapa was examined by Amato in her test system. […] As shown in the FIG. 3, DAPA-2-5, prepared as a solution dissolved in distilled water, produced a dose-dependent reduction of the amplitude of human colon smooth muscle contractions when it was added to the organic bath.
The experimental procedures were approved by the Ethics Committee, University of Palermo, Italy. Human distal colon samples were obtained after informed consent from patients without LGIT disorders. The specimens were immediately placed in preoxygenated Krebs solution and stored overnight at 4° C. Circular muscular strips (4 mm wide by 10 mm long) were cut and suspended in a four-channel organ bath and connected to an isometric force transducer (FORT 25, Ugo Basile, Biological Research Apparatus, Comerio, Va., Italy). The organ bath contained 8 mL of oxygenated Krebs solution at 37° C. Mechanical activity was analyzed using the PowerLab/400 system (Ugo Basile). A tension of 1 g was applied, and strips allowed to equilibrate until spontaneous phasic contractions were recorded. Dapa compounds were added at step concentrations of 1 to 300 μM to the organ bath, with washing in between, and the contractions recorded after 4 min when the drug effect stabilizes. The TRPM8 antagonist, 5-BT (10^−5 M), was added at least 15 min before Dapa.

[2] = test system: pentobarbital-anesthetized male rats; assay: Shaking frequency (wet-dog shaking) of anesthetized rats after intravenous, perioral or topical delivery; assay type: in vivo; conditions: anesthetized rat
Procedure: In experiments conducted here, test compounds were evaluated for “wet-dog shaking” as a model of cooling sensation. Using a standardized procedure, test compounds were compared in their ability to stimulate the shaking response by intravenous injection into a cannulated femoral vein, by perioral administration, and by topical delivery to the abdominal skin.
Each rat was given two injections with a 30 min interval. […] Shaking frequency was counted for 15 min after injection. Shaking was observed immediately after i.v. injection and at least 78% of the total shakes occurred in the first 5 min after injection. The response in the second trial was at least as robust in the first trial, showing the lack of desensitization.
Test compounds were dissolved in saline and administered by oral gavage to pentobarbital-anesthetized male albino rats at 20 mg/kg at a volume of 0.1 mL/100 g body weight [N=3 to 4 rats per compound]. Shaking was counted over a 40 min period and recorded at 10-min intervals.
For topical application of DAPA, the abdominal skin of the anesthetized rat was shaved and 20 μL of the pure DAPA was applied with a micropipette onto a ˜1 cm diameter circle of skin, enclosed with a ring of cream [Baby cream “Nevskaya kosmetika Detskyi” Nevskaya Kosmetika Inc., Saint-Petersburg 192029], as shown in FIG. 5D. The number of shakes was counted for 1 hr after application.

Strains TA 98 and TA100 = assay: Ames test; assay type: cell-based; conditions: TA 98 and TA100, with and without liver activation
Procedure: Preliminary toxicological studies were conducted on DAPA-2-5 and DAPA-2-7.

[3] = Repeated-dose toxicity in male rats (organ weights, histology); assay type: in vivo, rat
[4] = Tablet characterisation (hardness, friability, disintegration, HPLC recovery); assay type: physicochemical; conditions: prototype tablets disintegrated in water
Procedure: Dilution Approach: DAPA-2-5 liquid were loaded onto excipients (batch size: 12-24 g) in ˜12 experiments. The API and the selected excipients were mixed geometrically using a stainless steel spatula, and the mixture passed through sieve #20. The sieved blend was lubricated using magnesium stearate (previously sieved through mesh #40), and evaluated for appearance and flow property (through funnel). Based on the flow nature, selected blends were compressed in to tablets using Ø7.2 mm (for 120 mg tablets) or Ø9.5 mm (for higher than 120 mg tablet) standard concave round tooling on an Acura rotary press. Tablets were evaluated for thickness, hardness, friability, and disintegration test in 10 mL of purified water at room temperature. The appearance of powder blends and tablets were photographed.
The formed tablet was evaluated by several parameters. The dissolution rate is the time for the tablet to dissolve in a fixed volume of water [e.g. 10 mL] and, in the case of the ODT, the disintegration time should be less than 30 sec. Tablet hardness measures the structural integrity of a tablet “under conditions of storage, transportation, and handling before usage”. […]
A high pressure liquid chromatography [HPLC] method was developed for analysis of DAPA-2-5 in aqueous solution. […] Prototype tablets containing DAPA-2-5 were disintegrated and the content of DAPA-2-5 measured. […]

SMILES: CCCCCP(=O)(C(C)CC)C(C)CC (stereo not shown) [DAPA-2-5, 1-Di(sec-butyl) phosphinoyl-pentane]
- IC50 ([1]; amplitude of spontaneous contractions, human distal colon circular muscle): 34 µM
- effect of TRPM8 antagonist on the inhibition of contractions ([1]; pretreatment with 5-BT (10^−5 M)): inhibited by pretreatment with 5-BT
- IC50 ([1]; spontaneous contractions, human circular smooth muscle in vitro): 8 µg/mL
- Shaking frequency, Intravenous ([2]; 2 mg/kg i.v., 2nd trial, counted for 15 min): 20 ± 2 shakes
- Shaking frequency, Perioral ([2]; 20 mg/kg by oral gavage, counted for 40 min): 4 shakes and 4 ± 1 shakes
- Shaking frequency, Topical ([2]; 20 μL pure compound on shaved abdominal skin, counted for 1 hr): 0 shakes
- mutagenicity in the Ames test (Strains TA 98 and TA100): Neither of these compounds was mutagenic
- organ weights and histology vs vehicle ([3]; 20 mg/kg perioral by gavage for 7 days, rats): no statistical difference in organ weights or in histology
- organ weights and histology vs vehicle ([3]; via drinking water, 41 mg/kg body weight/day for 40 days, male rats): no statistical difference in organ weights or in histology
- DAPA-2-5 recovered from the aqueous phase [4]: 86±2%
